Data published in US6844429B2, “Fullerene derivative and composition comprising the same” (San-Ei Gen F.F.I., priority 2001, dated 2005).

test system: not listed separately; assay: Quantum yield measurement of singlet oxygen (DPBF absorbance decay under light irradiation); assay type: physicochemical; conditions: singlet oxygen quantum yield relative to tetraphenylporphyrin; DMSO, 27° C., 6.5×10^−7 M fullerene derivative, DPBF absorbance at 418 nm
Method: A DMSO solution containing 5.5×10^−5 M of 1,3-diphenylisobenzofuran (DPBF) was prepared, maintaining the water temperature in a waterbath at 27° C. 3 mL of the DMSO solution was poured into a quartz cell and a DMSO solution containing 1.5×10^−5 M of fullerene derivatives was added so that the concentration of the resulting solution is set to 6.5×10^−7 M. Subsequently, oxygen was bubbled through the solution for one minute or more. The cell was set in position within the waterbath, stirred using a multistirrer and irradiated with light every ten seconds to measure the absorbance of the DPBF at 418 nm. Natural logarithm of the absorbance thus measured was plotted against time of light irradiation to find the gradient. Thus, a relative scale with respect to the quantum yield of tetraphenylporphyrin (φ^1O2) was calculated.

Row | Molecule | Relative scale for φ^1O2
1 | OCC1OC(OCCn2c3c4c5c6c7c8c9c%10c%11c%12c%13c%10c%10c8c8c%14c%10c%10c%13c%13c%15c%12c%12c%16c%11c%11c9c7c7c9c%11c%16c%11c%16c%12c%15c%12c%15c%13c%10c%10c%14c(c4c86)c4c%10c%15c6c%12c%16c8c%11c9c(c75)c3c8c6c42)C(O)C(O)C1O [(D-Gal-(CH2)2—N)C60, N-[2-(β-D-galactopyranosyloxy)ethyl][5,6]-azafulleroid] | 0.7
2 | OC1COC(OCCn2c3c4c5c6c7c8c9c%10c%11c%12c%13c%10c%10c8c8c%14c%10c%10c%13c%13c%15c%12c%12c%16c%11c%11c9c7c7c9c%11c%16c%11c%16c%12c%15c%12c%15c%13c%10c%10c%14c(c4c86)c4c%10c%15c6c%12c%16c8c%11c9c(c75)c3c8c6c42)C(O)C1O [(D-Xyl-(CH2)2—N)C60, N-[2-(β-D-xylopyranosyloxy)ethyl][5,6]-azafulleroid] | 0.3
3 | N, Nα-bis[2-(2,3,4,6-tetra-O-acetyl-β-D-glucopyranosyloxy)ethyl] [5,6]-diazafulleroid [(D-AcGlc-(CH2)2—N)2C60] | 0.5
4 | N, N′-bis [2-(2,3,4,6-tetra-O-acetyl-α-D-mannopyranosyloxy)ethyl] [5,6]-diazafulleroid [(D-AcMan-(CH2)2—N)2C60] | 0.7
5 | N, N′-bis[2-(2,3,4,6-tetra-O-acetyl-β-D-galactopyranosyloxy)ethyl] [5,6]-diazafulleroid [(D-AcGal-(CH2)2—N)2C60] | 0.5
6 | N, N′-bis[2-(2,3,6,8,9,13-hepta-O-acetyl-β-(α-D-glucopyranosyl (1-4)-D-glucopyranosyloxy)ethyl) [5,6]-diazafulleroid [(AcMal-(CH2)2—N)2C60] | 0.6
7 | N, N′-bis[2-(β-D-glucopyranosyloxy)ethyl][5,6]-diazafulleroid [(D-Glc-(CH2)2—N)2C60] | 0.6
8 | N,Nα-bis[2-(2,3,4-tri-O-acetyl-β-D-xylopyranosyloxy)ethyl] [5,6]-diazafulleroid [(D-AcXyl-(CH2)2—N)2C60] | 0.3
9 | N,N′-bis[2-(α-D-mannopyranosyloxy)ethyl] [5,6]-diazafulleroid [(D-Man-(CH2)2—N)2C60] | 0.5
10 | N,N′-bis[2-(β-(α-D-glucopyranosyl(1-4)-D-glucopyranosyloxy)ethyl) [5,6]-diazafulleroid [(Mal-(CH2)2—N)2C60] | 0.8
11 | N,N′-bis[2-(β-D-galactopyranosyloxy)ethyl] [5,6]-diazafulleroid [(D-Gal-(CH2)2—N)2C60] | 0.7
12 | N,N′-bis[2-(β-D-xylopyranosyloxy)ethyl] [5,6]-diazafulleroid [(D-Xyl-(CH2)2—N)2C60] | 0.3
13 | N-[2-(2,3,4,6-tetra-O-acetyl-α-D-mannopyranosyloxy)ethyl] [5,6]-azafulleroid [(D-AcMan-(CH2)2—N)C60] | 0.8
14 | N-[2-(2,3,4,6-tetra-O-acetyl-β-D-galactopyranosyloxy)ethyl] [5,6]-azafulleroid [(D-AcGal-(CH2)2—N)C60] | 0.7
15 | N-[2-(2,3,4,6-tetra-O-acetyl-β-D-glucopyranosyloxy)ethyl][5,6]-azafulleroid [(D-AcGlc-(CH2)2—N)C60] | 0.6
16 | N-[2-(2,3,4-tri-O-acetyl-β-D-xylopyranosyloxy)ethyl] [5,6]-azafulleroid [(D-AcXyl-(CH2)2—N)C60] | 0.4
17 | N-[2-(2,3,6,8,9,13-hepta-O-acetyl-β-(α-D-glucopyranosyl (1-4)-D-glucopyranosyloxy)ethyl) [5,6]-azafulleroid [(AcMal-(CH2)2—N)C60] | 0.7
18 | N-[2-(α-D-mannopyranosyloxy)ethyl] [5,6]-azafulleroid [(D-Man-(CH2—N)C60] | 0.5
19 | N-[2-(β-(α-D-glucopyranosyl(1-4)-D-glucopyranosyloxy)ethyl) [5,6]-azafulleroid [(Mal-(CH2)2—N)C60] | 0.7
20 | N-[2-(β-D-glucopyranosyloxy)ethyl] [5,6]-azafulleroid [(D-Glc-(CH2)2—N)C60] | 0.6

test system: HeLa cells; assay: Phototoxicity test: viability of HeLa cells by MTT assay, without and with light irradiation; assay type: cell-based; conditions: 10 μM, light irradiation as in Test Example 2, FIG. 2
Method: The cytotoxicity of (Mal-(CH2)2—N)C60 (hereafter, referred to as Compound A) obtained in Example 12 was evaluated by the viability of HeLa cells using an MTT assay (Carmichal, J., W. G. DeGraff, A. F.Gazdar, J. D. Minna and J. B. Mitchell, Cancer Res., 1987, 47, 936-942). HeLa cells (5×10^3 cells/well) were incubated in a Dulbecco's modified Eagle's medium (DMEM) containing 10% fetal bovine serum (FBS) on a 96-well plate in 5% CO2 at 37° C. for 24 hours. After washing with phosphate buffered saline (PBS), 100 μl of (Mal-(CH2)2—N) C60 (DMEM) (−) solution (25 μM) as a fullerene derivative of the present invention was added to the cells, which were incubated for two hours. The cells were washed with PBS, replaced with 100 μl of DMEM(+) and theie viability was measured using the MTT assay. The viability was determined by measuring the absorbance at 570 nm (OD570). […] The ratio was calculated by the following formula: Cell survival ratio (%)=(OD 570 in the presence of Compound A/OD 570 in the absence of Compound A)×100. A cell survival ratio of 100% means the absence of cytotoxicity.
HeLa cells (5×10^3 cells/well) were treated in the same the manner as in the above. Compound A was added to the cells and the resulting cell was irradiated with a 500 W halogen lamp for 8 minutes. After 24 hours' incubation, the supernatant was removed and formazan was dissolved in 100 μl of DMSO. Thereafter, the viability was determined by measuring the absorbance at 570 nm (OD570). […] The ratio was calculated by the following formula: Cell survival ratio (%)=(OD 570 in the presence of Compound A with irradiation/OD 570 in the absence of Compound A with irradiation)×100.
Evaluations were made in the same manner as in Test Example 2 except that each of (Mal-(CH2)2—N)C60 (Compound A) obtained in Example 12 and (D-Xyl-(CH2)2—N)C60(hereafter, referred to as Compound B) obtained in Example 14 was used in amounts 1, 5, 10, 25 and […]. The obtained results of the cytotoxicities of Compounds A and B are shown in FIGS. 2 and 3, respectively.

Row | Molecule | toxicity, share of the cells (photocytotoxicity)
21 | N-[2-(β-(α-D-glucopyranosyl(1-4)-D-glucopyranosyloxy)ethyl) [5,6]-azafulleroid [(Mal-(CH2)2—N)C60] | about 50%

same assay, conditions: 25 μM, 500 W halogen lamp for 8 minutes, 24 hours' incubation, MTT OD570, FIG. 1

Row | Molecule | cytotoxicity (cell survival ratio) with light irradiation
22 | N-[2-(β-(α-D-glucopyranosyl(1-4)-D-glucopyranosyloxy)ethyl) [5,6]-azafulleroid [(Mal-(CH2)2—N)C60] | cytotoxicity is observed

same assay, conditions: 25 μM, two hours incubation, no light irradiation, MTT OD570, FIG. 1

Row | Molecule | cytotoxicity (cell survival ratio) without light irradiation
23 | N-[2-(β-(α-D-glucopyranosyl(1-4)-D-glucopyranosyloxy)ethyl) [5,6]-azafulleroid [(Mal-(CH2)2—N)C60] | cytotoxicity is not observed
